Assay results reported in the supplement of paper PMC11208160.

Experiment: recombinant UMI read abundance after kanamycin selection (control-corrected) (log10(CPM+1)); higher = more efficient recombination; extreme values may be limits of the assay; sequences stand for … in AGTGCAGAGAAAATCGGCCAGTTTTCTCTGCCTGCAGTCCGCATGCCGTGGGACCCCTTGGGTTCTAACCTGTTGCCTAGATTTATGCAGCGGACTGCCTTTCTCCCAAAGTGATAAACCGG…AGGTTGGTTTCACT; site = the 11-nt donor
Outline: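 In Escherichia coli, a pool of donor and donor-binding-loop pairs, each with a 12-nt UMI, was tested for the IS621 bridge recombinase. Plating was on IPTG (0.07 mM) plus kanamycin, or without selection, in two replicates. Recombinant UMIs were amplified by PCR across the donor–target junction and sequenced, and counts were reported as log10(CPM+1) after averaging and control-derived scaling.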
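Note: IS621 bridge recombinase in Escherichia coli cells against a fixed T5 target plasmid.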

Sequence | recombinant UMI read abundance (log10)
CTCTGGACATGGACCGGTTTTCCCGGTAATCCGTATTTGGA (site TGAGTCTCTCA) | 0
CTCTTGGCATGGACCGGTTTTCCCGGTAATCCGTATTTGGA (site CACTTGGCTTC) | 0.273
CTCTTGGCATGGACCGGTTTTCCCGGTAATCCGTATTTGGA (site CCCTTGGCTTC) | 0.169
CTCTTGGCATGGACCGGTTTTCCCGGTAATCCGTATTTGGA (site CGCTTGGCTTC) | 0.00297
CTCTTGGCATGGACCGGTTTTCCCGGTAATCCGTATTTGGA (site CTCTTGGCTTC) | 0.529
CTGAATCCATGGACCGGTTTTCCCGGTAATCCGTATTTGTG (site CGGAATCCTAA) | 0.00601
CTGAATCCATGGACCGGTTTTCCCGGTAATCCGTATTTGTG (site CTGAATCCTCA) | 0.684
CTGACCTCATGGACCGGTTTTCCCGGTAATCCGTATTTGTA (site CTGACCTCTTA) | 2.34
CTGAGATCATGGACCGGTTTTCCCGGTAATCCGTATTTGTA (site CTGAGATCTTA) | 2.8
CTGAGGCCATGGACCGGTTTTCCCGGTAATCCGTATTTGGT (site CTGAGGCCTAC) | 0
CTGATACCATGGACCGGTTTTCCCGGTAATCCGTATTTGCT (site CTGATACCTAG) | 0.00587
CTGATACCATGGACCGGTTTTCCCGGTAATCCGTATTTGCT (site CTGCTACCTAG) | 0
CTGATACCATGGACCGGTTTTCCCGGTAATCCGTATTTGCT (site CTGGTACCTAG) | 0
CTGATACCATGGACCGGTTTTCCCGGTAATCCGTATTTGCT (site CTGTTACCTAG) | 0
CTGCACACATGGACCGGTTTTCCCGGTAATCCGTATTTGAT (site CTGCACACTAT) | 2.25
CTGCCACCATGGACCGGTTTTCCCGGTAATCCGTATTTGCT (site CTGCAACCTAG) | 0
CTGCCACCATGGACCGGTTTTCCCGGTAATCCGTATTTGCT (site CTGCCACCTAG) | 0.00511
CTGCCACCATGGACCGGTTTTCCCGGTAATCCGTATTTGCT (site CTGCGACCTAG) | 0
CTGCCACCATGGACCGGTTTTCCCGGTAATCCGTATTTGCT (site CTGCTACCTAG) | 0

Sequence | recombinant UMI read abundance (log10)
CTGCCCACATGGACCGGTTTTCCCGGTAATCCGTATTTGCG (site CTGCCCACTCG) | 1.76
CTGCGAGCATGGACCGGTTTTCCCGGTAATCCGTATTTGCA (site CTGCGAGCTTG) | 0.942
CTGCGTTCATGGACCGGTTTTCCCGGTAATCCGTATTTGGA (site CTGCGTTCTTC) | 1.44
CTGCTAACATGGACCGGTTTTCCCGGTAATCCGTATTTGCC (site CTGCTAACTGG) | 2.21
CTGCTACCATGGACCGGTTTTCCCGGTAATCCGTATTTGAT (site CTGCTACCTAA) | 0.0178
CTGCTACCATGGACCGGTTTTCCCGGTAATCCGTATTTGAT (site CTGCTACCTAC) | 0.00934
CTGCTACCATGGACCGGTTTTCCCGGTAATCCGTATTTGAT (site CTGCTACCTAG) | 0.00723
CTGCTACCATGGACCGGTTTTCCCGGTAATCCGTATTTGAT (site CTGCTACCTAT) | 0.00649
CTGCTACCATGGACCGGTTTTCCCGGTAATCCGTATTTGCC (site CTGCTACCTAG) | 0
CTGCTACCATGGACCGGTTTTCCCGGTAATCCGTATTTGCC (site CTGCTACCTCG) | 0.00838
CTGCTACCATGGACCGGTTTTCCCGGTAATCCGTATTTGCC (site CTGCTACCTGG) | 0
CTGCTACCATGGACCGGTTTTCCCGGTAATCCGTATTTGCC (site CTGCTACCTTG) | 0
CTGCTACCATGGACCGGTTTTCCCGGTAATCCGTATTTGCT (site ATGCTACCTAG) | 0.00358
CTGCTACCATGGACCGGTTTTCCCGGTAATCCGTATTTGCT (site CAGCTACCTAG) | 0
CTGCTACCATGGACCGGTTTTCCCGGTAATCCGTATTTGCT (site CCGCTACCTAG) | 0
CTGCTACCATGGACCGGTTTTCCCGGTAATCCGTATTTGCT (site CGGCTACCTAG) | 0
CTGCTACCATGGACCGGTTTTCCCGGTAATCCGTATTTGCT (site CTACTACCTAG) | 0
CTGCTACCATGGACCGGTTTTCCCGGTAATCCGTATTTGCT (site CTCCTACCTAG) | 0
CTGCTACCATGGACCGGTTTTCCCGGTAATCCGTATTTGCT (site CTGATACCTAG) | 0
